Among the data in patent US11306084B2, “Integrin antagonists” (Saint Louis University, priority 2016, dated 2022) are IC50 values, retold here.

What is called IC50 is the concentration needed to halve the response being measured.

Common to all, as to type: binding
The target in experiment [1] is T1, Recombinant human integrin ανβ1 (Homo sapiens, UniProt P05556+P06756).
T1 construct: purchased R&D Systems 6579-AV
Description: Solid Phase Receptor Assay (SPRA) for ανβ1 function. The settings on record: plate-bound human fibronectin; read-out: αvβ1 SPRA IC50.

Experiment [2] has as its target T2, Recombinant human integrin ανβ8 (Homo sapiens, UniProt P06756+P26012).
T2 construct: purchased R&D Systems 4135-AV
Description: Solid Phase Receptor Assay (SPRA) for ανβ8 function. The settings on record: plate-bound human LAP; read-out: αvβ8 SPRA IC50.

Experiment [3] deals with T3, Recombinant human integrin ανβ3 (Homo sapiens, UniProt P05106+P06756).
T3 construct: purchased R&D Systems 3050-AV
T3 sequence (P06756 31-992 limits assumed): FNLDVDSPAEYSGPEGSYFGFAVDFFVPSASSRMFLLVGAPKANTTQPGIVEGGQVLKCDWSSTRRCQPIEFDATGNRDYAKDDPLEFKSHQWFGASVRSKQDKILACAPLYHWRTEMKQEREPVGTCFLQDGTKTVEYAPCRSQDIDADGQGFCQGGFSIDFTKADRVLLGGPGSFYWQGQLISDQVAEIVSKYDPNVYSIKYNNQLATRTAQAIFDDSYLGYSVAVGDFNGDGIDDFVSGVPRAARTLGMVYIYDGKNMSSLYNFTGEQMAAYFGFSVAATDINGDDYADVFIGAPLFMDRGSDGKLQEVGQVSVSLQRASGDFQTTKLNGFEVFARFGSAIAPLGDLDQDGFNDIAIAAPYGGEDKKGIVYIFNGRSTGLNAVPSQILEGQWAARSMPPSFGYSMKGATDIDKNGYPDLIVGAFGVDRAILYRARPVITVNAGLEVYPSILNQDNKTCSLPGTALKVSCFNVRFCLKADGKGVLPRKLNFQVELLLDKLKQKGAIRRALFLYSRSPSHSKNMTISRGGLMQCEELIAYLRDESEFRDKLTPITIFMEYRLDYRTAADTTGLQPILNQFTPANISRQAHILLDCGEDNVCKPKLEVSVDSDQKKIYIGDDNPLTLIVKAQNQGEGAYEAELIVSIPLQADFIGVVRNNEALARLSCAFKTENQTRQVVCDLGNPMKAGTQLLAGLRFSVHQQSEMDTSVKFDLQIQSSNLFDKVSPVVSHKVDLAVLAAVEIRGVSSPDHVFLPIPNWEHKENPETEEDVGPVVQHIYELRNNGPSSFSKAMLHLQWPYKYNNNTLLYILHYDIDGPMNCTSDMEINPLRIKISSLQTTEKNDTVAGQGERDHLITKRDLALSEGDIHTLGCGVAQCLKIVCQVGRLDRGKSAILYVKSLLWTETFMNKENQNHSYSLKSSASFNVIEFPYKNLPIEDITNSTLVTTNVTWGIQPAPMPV
T3 sequence (P05106 27-718 limits assumed): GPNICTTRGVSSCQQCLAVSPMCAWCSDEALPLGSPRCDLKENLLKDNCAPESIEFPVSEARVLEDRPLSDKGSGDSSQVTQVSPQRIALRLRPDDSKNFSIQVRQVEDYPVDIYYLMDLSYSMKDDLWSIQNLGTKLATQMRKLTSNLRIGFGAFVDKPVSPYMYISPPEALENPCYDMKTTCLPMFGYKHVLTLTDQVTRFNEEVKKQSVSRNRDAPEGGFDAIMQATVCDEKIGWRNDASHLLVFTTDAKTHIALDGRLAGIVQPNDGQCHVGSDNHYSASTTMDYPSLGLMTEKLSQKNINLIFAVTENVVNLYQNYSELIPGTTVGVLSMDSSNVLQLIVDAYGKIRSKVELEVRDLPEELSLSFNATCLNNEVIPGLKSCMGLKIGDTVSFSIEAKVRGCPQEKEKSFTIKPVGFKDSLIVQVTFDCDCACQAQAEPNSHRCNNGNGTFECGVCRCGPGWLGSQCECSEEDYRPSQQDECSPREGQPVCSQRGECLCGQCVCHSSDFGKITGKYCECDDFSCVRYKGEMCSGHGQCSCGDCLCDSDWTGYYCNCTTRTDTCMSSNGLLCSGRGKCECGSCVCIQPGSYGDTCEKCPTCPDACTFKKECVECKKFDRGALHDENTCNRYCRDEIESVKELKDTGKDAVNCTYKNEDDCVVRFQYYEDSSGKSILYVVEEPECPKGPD
In words: Solid Phase Receptor Assay (SPRA) for ανβ3 function. The settings on record: plate-bound human vitronectin; read-out: αvβ3 SPRA IC50.

The target in experiment [4] is T4, Recombinant human integrin α5β1 (Homo sapiens, UniProt P05556+P08648).
T4 construct: purchased R&D Systems 3230-A5
T4 sequence (P08648 42-995 limits assumed): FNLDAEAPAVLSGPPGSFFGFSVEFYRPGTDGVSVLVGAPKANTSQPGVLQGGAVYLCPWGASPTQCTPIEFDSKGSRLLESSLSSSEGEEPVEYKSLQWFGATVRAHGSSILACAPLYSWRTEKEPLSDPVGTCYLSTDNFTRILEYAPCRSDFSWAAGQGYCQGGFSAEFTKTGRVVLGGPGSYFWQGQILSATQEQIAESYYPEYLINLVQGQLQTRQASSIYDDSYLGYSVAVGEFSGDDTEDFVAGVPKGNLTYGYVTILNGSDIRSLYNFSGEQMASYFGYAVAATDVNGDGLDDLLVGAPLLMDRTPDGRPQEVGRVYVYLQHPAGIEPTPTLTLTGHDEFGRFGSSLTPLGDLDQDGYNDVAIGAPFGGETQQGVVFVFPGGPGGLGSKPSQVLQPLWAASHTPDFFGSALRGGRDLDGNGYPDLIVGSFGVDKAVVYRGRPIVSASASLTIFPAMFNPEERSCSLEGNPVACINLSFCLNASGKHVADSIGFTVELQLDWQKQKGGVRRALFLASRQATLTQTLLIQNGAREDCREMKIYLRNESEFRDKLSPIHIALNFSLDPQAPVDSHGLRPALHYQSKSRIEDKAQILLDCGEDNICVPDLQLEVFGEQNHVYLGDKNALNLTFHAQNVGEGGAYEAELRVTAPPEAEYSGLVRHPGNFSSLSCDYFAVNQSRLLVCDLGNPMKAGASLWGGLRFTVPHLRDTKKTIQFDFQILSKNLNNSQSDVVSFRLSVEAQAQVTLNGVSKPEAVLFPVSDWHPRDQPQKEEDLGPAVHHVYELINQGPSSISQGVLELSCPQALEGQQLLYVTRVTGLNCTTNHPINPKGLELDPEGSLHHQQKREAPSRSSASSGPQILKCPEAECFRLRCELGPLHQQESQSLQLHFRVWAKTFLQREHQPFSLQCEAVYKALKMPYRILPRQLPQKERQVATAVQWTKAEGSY
T4 sequence (P05556 21-728 limits assumed): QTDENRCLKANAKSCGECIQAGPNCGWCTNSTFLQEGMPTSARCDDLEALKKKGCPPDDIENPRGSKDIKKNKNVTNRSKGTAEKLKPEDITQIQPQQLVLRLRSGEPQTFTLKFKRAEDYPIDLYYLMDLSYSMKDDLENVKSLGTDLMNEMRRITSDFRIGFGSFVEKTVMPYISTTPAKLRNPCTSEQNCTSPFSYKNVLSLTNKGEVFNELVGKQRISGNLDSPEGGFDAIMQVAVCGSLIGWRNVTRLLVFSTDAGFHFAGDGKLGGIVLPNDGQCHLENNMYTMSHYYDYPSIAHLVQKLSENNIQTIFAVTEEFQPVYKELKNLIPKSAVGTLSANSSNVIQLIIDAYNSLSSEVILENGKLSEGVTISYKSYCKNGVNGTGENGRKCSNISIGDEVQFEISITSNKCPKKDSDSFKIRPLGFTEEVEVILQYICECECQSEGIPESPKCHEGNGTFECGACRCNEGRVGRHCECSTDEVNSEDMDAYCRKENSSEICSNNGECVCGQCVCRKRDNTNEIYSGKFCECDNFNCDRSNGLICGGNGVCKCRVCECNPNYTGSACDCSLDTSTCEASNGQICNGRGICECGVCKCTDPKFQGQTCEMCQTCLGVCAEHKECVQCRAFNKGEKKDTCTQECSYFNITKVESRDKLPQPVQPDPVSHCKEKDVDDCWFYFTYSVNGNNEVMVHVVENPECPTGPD
Description: Solid Phase Receptor Assay (SPRA) for α5β1 function. The settings on record: plate-bound human fibronectin.

Counter-ions that a name gives are not always drawn.

T2 sequence (P06756 31-992 limits assumed): as the sequence (P06756 31-992 limits assumed) above
T2 sequence (P26012 43-684 limits assumed): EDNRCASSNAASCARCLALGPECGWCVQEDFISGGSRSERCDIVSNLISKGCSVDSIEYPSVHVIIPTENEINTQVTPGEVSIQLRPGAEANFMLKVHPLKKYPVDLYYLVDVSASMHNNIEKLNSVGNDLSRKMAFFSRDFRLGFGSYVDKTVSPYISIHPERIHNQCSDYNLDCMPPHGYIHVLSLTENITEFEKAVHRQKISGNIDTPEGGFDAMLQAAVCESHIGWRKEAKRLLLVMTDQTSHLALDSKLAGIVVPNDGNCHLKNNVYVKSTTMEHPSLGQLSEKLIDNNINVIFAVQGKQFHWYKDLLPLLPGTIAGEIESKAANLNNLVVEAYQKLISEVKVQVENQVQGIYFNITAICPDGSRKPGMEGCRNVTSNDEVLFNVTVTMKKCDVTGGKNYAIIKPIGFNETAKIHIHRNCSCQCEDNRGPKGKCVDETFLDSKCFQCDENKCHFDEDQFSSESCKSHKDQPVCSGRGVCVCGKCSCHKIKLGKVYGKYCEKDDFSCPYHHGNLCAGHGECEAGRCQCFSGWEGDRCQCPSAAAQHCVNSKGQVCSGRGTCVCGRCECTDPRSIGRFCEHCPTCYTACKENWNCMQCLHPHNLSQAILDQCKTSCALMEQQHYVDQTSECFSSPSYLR
T1 sequence (P06756 31-992 limits assumed): as the sequence (P06756 31-992 limits assumed) above
T1 sequence (P05556 21-728 limits assumed): as the sequence (P05556 21-728 limits assumed) above

As to `Cc1ccc(C(C)(C)C)cc1C(CC(=O)O)Cc1cc(OCCc2ccc3c(n2)NCCC3)n(C)n1` (centres unmarked) [Example 44, 3-(5-tert-butyl-2-methyl-phenyl)-4-[1-methyl-5-[2-(5,6,7,8-tetrahydro-1,8-naphthyridin-2-yl)ethoxy]pyrazol-3-yl]butanoic Acid Trifluoroacetate], the IC50 is 14 nM in experiment [1], 360 nM in experiment [2], 270 nM in experiment [3] and 230 nM in experiment [4].

In the case of `COc1ccc(C#N)cc1C(CC(=O)O)Cc1cc(OCCc2ccc3c(n2)NCCC3)n(C)n1` (centres unmarked) [Example 46, 3-(5-cyano-2-methoxyphenyl)-4-(1-methyl-5-(2-(5,6,7,8-tetrahydro-1,8-naphthyridin-2-yl)ethoxy)-1H-pyrazol-3-yl)butanoic Acid Trifluoroacetate], the IC50 in experiment [1] amounted to 8.1 nM; in experiment [2], 31 nM; in experiment [3] it was 9.9 nM; in experiment [4], 51 nM.

For the compound `COc1ccc(C(N)=O)cc1C(CC(=O)O)Cc1cc(OCCc2ccc3c(n2)NCCC3)n(C)n1` (centres unmarked) [Example 47, 3-(5-carbamoyl-2-methoxyphenyl)-4-(1-methyl-5-(2-(5,6,7,8-tetrahydro-1,8-naphthyridin-2-yl)ethoxy)-1H-pyrazol-3-yl)butanoic Acid trifluoroacetate], the 50% inhibitory concentration (IC50) in experiment [1] amounted to 4.9 nM; in experiment [2], 3.6 nM; in experiment [3], 4.9 nM; in experiment [4] it was 13 nM.

`COc1ccc(C(=O)O)cc1C(CC(=O)O)Cc1cc(OCCc2ccc3c(n2)NCCC3)n(C)n1` (centres unmarked) [Example 48, 3-(1-carboxy-3-(1-methyl-5-(2-(5,6,7,8-tetrahydro-1,8-naphthyridin-2-yl)ethoxy)-1H-pyrazol-3-yl)propan-2-yl)-4-methoxybenzoic Acid Trifluoroacetate]: the concentration for half-maximal inhibition (IC50) was 19 nM in experiment [1], 92 nM in experiment [2], 5 nM in experiment [3] and 230 nM in experiment [4].

Take `Cn1nc(CC(CC(=O)O)c2cccc(C(C)(C)C)c2)cc1OCCc1ccc2c(n1)NCCC2` (centres unmarked) [Example 49, 3-(3-tert-butylphenyl)-4-[1-methyl-5-[2-(5,6,7,8-tetrahydro-1,8-naphthyridin-2-yl)ethoxy]pyrazol-3-yl]butanoic Acid Trifluoroacetate]: the half-inhibitory concentration (IC50) in experiment [1] is 4.4 nM; in experiment [2] it was 73 nM; in experiment [3], 7 nM; in experiment [4] it was 12 nM.
